Where a SMILES comes first, the peptide text is derived from it. Bridges are numbered along the chain shown (N, C = ends). [ ]: non-standard residue; d: D form. Tle = CC(C)(C)[C@H](N)C(=O)O; dDab = NCC[C@@H](N)C(=O)O; NMeA = CN[C@@H](C)C(=O)O; Orn = NCCC[C@H](N)C(=O)O; Dab = NCC[C@H](N)C(=O)O; Dap = NC[C@H](N)C(=O)O
Key:
[1] = tested on: Escherichia coli ATCC 25922; type: cell-based; conditions: ATCC 25922
Summary of the method: (§1)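 Peptide MICs were determined by NCCLS broth microdilution in cation-adjusted Mueller-Hinton II broth. Inoculum was about 10^6 CFU/mL, matched to 0.5 McFarland, with peptides in two-fold serial dilutions. The broth contained Polysorbate 80 at 0.002% final concentration.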

[2] = tested on: Acinetobacter baumannii DSM 30008; type: cell-based; conditions: DSM 30008
Summary of the method: as §1

[3] = tested on: Klebsiella pneumoniae ATCC 13883; type: cell-based; conditions: ATCC 13883
Summary of the method: as §1

[4] = tested on: human red blood cells (hRBC); test: Hemolysis: hemolytic activity at 100 μg/mL, 1 h at 37° C.; conditions: red cells of human, 1 h, 100
Summary of the method: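 Peptides at 100 μg/mL incubated with washed 20% (v/v) human erythrocytes (~0.9×10^9 cells/mL) for 1 h at 37 °C with shaking. Released hemoglobin read at OD 540 nm in supernatant; 0% and 100% lysis from PBS/0.001% acetic acid and 2.5% Triton X-100.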

SMILES	Escherichia coli ATCC 25922 MIC [1]	Acinetobacter baumannii DSM 30008 MIC [2]	Klebsiella pneumoniae ATCC 13883 MIC [3]	Hemolysis at 100 μg/mL [4]
CC(C)C[C@@H]1NC(=O)[C@H](CCCNC(=N)N)NC(=O)[C@@H](C)NC(=O)[C@H](C(C)C)NC(=O)[C@@H]2CSSC[C@H](NC1=O)C(=O)N[C@@H](Cc1ccc(O)cc1)C(=O)N[C@@H](CCN)C(=O)N[C@@H](CCCN)C(=O)N[C@H](CCN)C(=O)N[C@@H](CCN)C(=O)N[C@@H](Cc1c[nH]c3ccccc13)C(=O)N[C@@H](CC(N)=O)C(=O)N[C@@H](Cc1ccc(O)cc1)C(=O)N2 [Example 73, cyclo(-Leu-Cys-Tyr-Dab-Orn-^DDab-Dab-Trp-Asn-Tyr-Cys-Val-^DAla-Arg-)] (HELM PEPTIDE1{C.V.[dA].R.L.C.Y.[Dab].[Orn].[NCC[C@@H](N[*:1])C(=O)[*:2]].[Dab].W.N.Y}$PEPTIDE1,PEPTIDE1,1:R3-6:R3|PEPTIDE1,PEPTIDE1,1:R1-14:R2$$$V2.0)	0.75 µg/mL	1.5 µg/mL	1 µg/mL	1%
CC(C)C[C@@H]1NC(=O)[C@H](CCCNC(=N)N)NC(=O)[C@H]2CCCN2C(=O)[C@H](C(C)C)NC(=O)[C@@H]2CSSC[C@H](NC1=O)C(=O)N[C@@H](Cc1ccc(O)cc1)C(=O)N[C@@H](C)C(=O)N[C@@H](CCN)C(=O)N[C@H](CCN)C(=O)N[C@@H](CCN)C(=O)N[C@@H](Cc1c[nH]c3ccccc13)C(=O)N[C@@H](C)C(=O)N[C@@H](C(C)C)C(=O)N2 [Example 2, cyclo(-Leu-Cys-Tyr-Ala-Dab-^DDab-Dab-Trp-Ala-Val-Cys-Val-^DPro-Arg-)] (HELM PEPTIDE1{A.[Dab].[NCC[C@@H](N[*:1])C(=O)[*:2]].[Dab].W.A.V.C.V.[dP].R.L.C.Y}$PEPTIDE1,PEPTIDE1,8:R3-13:R3|PEPTIDE1,PEPTIDE1,1:R1-14:R2$$$V2.0)	4 µg/mL	2.5 µg/mL	2 µg/mL	5%
CC(C)C[C@@H]1NC(=O)[C@H](CCCNC(=N)N)NC(=O)[C@@H](CCN)NC(=O)[C@H](C(C)C)NC(=O)[C@@H]2CSSC[C@H](NC1=O)C(=O)N[C@@H](Cc1ccc(O)cc1)C(=O)N[C@@H](C(C)C)C(=O)N[C@@H](CCCN)C(=O)N[C@H](CCN)C(=O)N[C@@H](CCN)C(=O)N[C@@H](Cc1c[nH]c3ccccc13)C(=O)N[C@@H](Cc1ccc(O)cc1)C(=O)N[C@@H](Cc1ccc(O)cc1)C(=O)N2 [Example 21, cyclo(-Leu-Cys-Tyr-Val-Orn-^DDab-Dab-Trp-Tyr-Tyr-Cys-Val-^DDab-Arg-)] (HELM PEPTIDE1{C.V.[NCC[C@@H](N[*:1])C(=O)[*:2]].R.L.C.Y.V.[Orn].[NCC[C@@H](N[*:1])C(=O)[*:2]].[Dab].W.Y.Y}$PEPTIDE1,PEPTIDE1,1:R3-6:R3|PEPTIDE1,PEPTIDE1,1:R1-14:R2$$$V2.0)	1 µg/mL	0.5 µg/mL	1 µg/mL	6%
CC(C)C[C@@H]1NC(=O)[C@H](CCCNC(=N)N)NC(=O)[C@@H](CCN)NC(=O)[C@H](CC(C)C)NC(=O)[C@@H]2CSSC[C@H](NC1=O)C(=O)N[C@@H](Cc1ccc(O)cc1)C(=O)N[C@@H](CC(N)=O)C(=O)N[C@@H](CCCN)C(=O)N[C@H](CCN)C(=O)N[C@@H](CCN)C(=O)N[C@@H](Cc1c[nH]c3ccccc13)C(=O)N[C@@H](CO)C(=O)N[C@@H](Cc1ccc(O)cc1)C(=O)N2 [Example 63, cyclo(-Leu-Cys-Tyr-Asn-Orn-^DDab-Dab-Trp-Ser-Tyr-Cys-Leu-^DDab-Arg-)] (HELM PEPTIDE1{C.L.[NCC[C@@H](N[*:1])C(=O)[*:2]].R.L.C.Y.N.[Orn].[NCC[C@@H](N[*:1])C(=O)[*:2]].[Dab].W.S.Y}$PEPTIDE1,PEPTIDE1,1:R3-6:R3|PEPTIDE1,PEPTIDE1,1:R1-14:R2$$$V2.0)	1 µg/mL	0.625 µg/mL	0.75 µg/mL	3%
CC[C@H](C)[C@@H]1NC(=O)[C@H](Cc2ccc(O)cc2)NC(=O)[C@@H](C)NC(=O)[C@H](CO)NC(=O)[C@@H]2CSSC[C@H](NC1=O)C(=O)N[C@@H](Cc1ccc(O)cc1)C(=O)N[C@@H](CCN)C(=O)N[C@@H](CCCN)C(=O)N[C@H](CCN)C(=O)N[C@@H](CCN)C(=O)N[C@@H](Cc1c[nH]c3ccccc13)C(=O)N[C@@H](CCN)C(=O)N[C@@H](C(C)(C)C)C(=O)N2 [Example 16, cyclo(-Ile-Cys-Tyr-Dab-Orn-^DDab-Dab-Trp-Dab-tBuGly-Cys-Ser-^DAla-Tyr-)] (HELM PEPTIDE1{C.S.[dA].Y.I.C.Y.[Dab].[Orn].[NCC[C@@H](N[*:1])C(=O)[*:2]].[Dab].W.[Dab].[CC(C)(C)[C@H](N[*:1])C(=O)[*:2]]}$PEPTIDE1,PEPTIDE1,1:R3-6:R3|PEPTIDE1,PEPTIDE1,1:R1-14:R2$$$V2.0)	0.5 µg/mL	1 µg/mL	0.5 µg/mL	1%
CC[C@@H]1NC(=O)[C@H](CCCNC(=N)N)NC(=O)[C@@H](CCN)NC(=O)[C@H](C(C)C)NC(=O)[C@@H]2CSSC[C@H](NC1=O)C(=O)N[C@@H](Cc1ccc(O)cc1)C(=O)N[C@@H](CC(N)=O)C(=O)N[C@@H](CCCN)C(=O)N[C@H](CCN)C(=O)N[C@@H](CCN)C(=O)N[C@@H](Cc1c[nH]c3ccccc13)C(=O)N[C@@H](CO)C(=O)N[C@@H](Cc1ccc(O)cc1)C(=O)N2 [Example 61, cyclo(-Abu-Cys-Tyr-Asn-Orn-^DDab-Dab-Trp-Ser-Tyr-Cys-Val-^DDab-Arg-)] (HELM PEPTIDE1{[Abu].C.Y.N.[Orn].[NCC[C@@H](N[*:1])C(=O)[*:2]].[Dab].W.S.Y.C.V.[NCC[C@@H](N[*:1])C(=O)[*:2]].R}$PEPTIDE1,PEPTIDE1,2:R3-11:R3|PEPTIDE1,PEPTIDE1,1:R1-14:R2$$$V2.0)	2 µg/mL	1.5 µg/mL	2 µg/mL	1%
CC(C)[C@@H]1NC(=O)[C@@H]2CCCN2C(=O)[C@H](C)N(C)C(=O)[C@H](CO)NC(=O)[C@@H]2CSSC[C@H](NC1=O)C(=O)N[C@@H](Cc1ccc(O)cc1)C(=O)N[C@@H](CCN)C(=O)N[C@@H](CN)C(=O)N[C@H](CCN)C(=O)N[C@@H](CCN)C(=O)N[C@@H](Cc1c[nH]c3ccccc13)C(=O)N[C@@H](CCN)C(=O)N[C@@H](C(C)(C)C)C(=O)N2 [Example 9, cyclo(-Val-Cys-Tyr-Dab-Dap-^DDab-Dab-Trp-Dab-tBuGly-Cys-Ser-NMeAla-Pro-] (cyclo(CS[NMeA]PVCY[Dab][Dap][dDab][Dab]W[Dab][Tle]); disulfide 1-6)	0.5 µg/mL	1 µg/mL	0.5 µg/mL	2%
CC[C@H](C)[C@@H]1NC(=O)[C@H](CCCNC(=N)N)NC(=O)[C@@H](CCN)NC(=O)[C@H](CO)NC(=O)[C@@H]2CSSC[C@H](NC1=O)C(=O)N[C@@H](Cc1ccc(O)cc1)C(=O)N[C@@H](CCN)C(=O)N[C@@H](CCCN)C(=O)N[C@H](CCN)C(=O)N[C@@H](CCN)C(=O)N[C@@H](Cc1c[nH]c3ccccc13)C(=O)N[C@@H](CCN)C(=O)N[C@@H](C(C)(C)C)C(=O)N2 [Example 12, cyclo(-Ile-Cys-Tyr-Dab-Orn-^DDab-Dab-Trp-Dab-tBuGly-Cys-Ser-^DDab-Arg-)] (cyclo(CS[dDab]RICY[Dab][Orn][dDab][Dab]W[Dab][Tle]); disulfide 1-6)	0.5 µg/mL	1 µg/mL	1 µg/mL	1%
CC(C)C[C@@H]1NC(=O)[C@H](CCCNC(=N)N)NC(=O)[C@@H](CCN)NC(=O)[C@H](C(C)C)NC(=O)[C@@H]2CSSC[C@H](NC1=O)C(=O)N[C@@H](C(C)C)C(=O)N[C@@H]([C@@H](C)O)C(=O)N[C@@H](CCCN)C(=O)N[C@H](CCN)C(=O)N[C@@H](CCN)C(=O)N[C@@H](Cc1c[nH]c3ccccc13)C(=O)N[C@@H]([C@@H](C)O)C(=O)N[C@@H](Cc1ccc(O)cc1)C(=O)N2 [Example 25, cyclo(-Leu-Cys-Val-Thr-Orn-^DDab-Dab-Trp-Thr-Tyr-Cys-Val-^DDab-Arg-)] (HELM PEPTIDE1{C.V.T.[Orn].[NCC[C@@H](N[*:1])C(=O)[*:2]].[Dab].W.T.Y.C.V.[NCC[C@@H](N[*:1])C(=O)[*:2]].R.L}$PEPTIDE1,PEPTIDE1,1:R3-10:R3|PEPTIDE1,PEPTIDE1,1:R1-14:R2$$$V2.0)	1 µg/mL	0.25 µg/mL	1 µg/mL	3%

— patent US11753446B2, “Beta-hairpin peptidomimetics” (POLYPHOR AG, priority 2014, dated 2023)
